Measurements reported in article PMC9181126, “Design, Synthesis, Molecular Docking Analysis and Biological Evaluations of 4-[(Quinolin-4-yl)amino]benzamide Derivatives as Novel Anti-Influenza Virus Agents” (International Journal of Molecular Sciences, 2022).

What was measured:
in vitro [1] = type: cell-based, canine; details: dog
Description: (§1) The 3-(4,5-dimethylthiazol-2-yl)-2,5-diphenyltetrazolium bromide (MTT) method was performed to assess the cytotoxicity of target compounds in MDCK cells and HEK293T cells. Firstly, MDCK cells or HEK293T cells were seeded into the 96-well plate. Then, the media containing test compounds replaced the growth media after 48 h. Incubate MDCK cells or HEK293T cells with test compounds for 72 h at 37 °C in a humidified 5% CO2 incubator. Later, MTT solution (5 mg/mL in PBS) was added into each well and plates were incubated for 4 h at 37 °C. Then, add a solubilization solution to lyse cells. Finally, absorbance was read at 620 nm using an ELISA plate reader (Tecan Sunrise) after 3 h of further incubation at 37 °C. We set the values obtained from the wells treated with only DMSO as 100% of viable cells.

MDCK cells = test: in vitro; type: cell-based, canine; details: dog, 72 h
Description: as §1

in vitro [2] = type: cell-based; details: human
Description: as §1

HEK293T cells = test: in vitro; type: cell-based; details: human, 72 h
Description: as §1

[3] = system: influenza virus A/WSN/33 (H1N1); test: microbe, parasite or virus in culture; type: cell-based; details: MDCK, 72 h; for inhibition at 12.5 µM / inhibition at 25 µM / inhibition at 50 µM / inhibition at 100 µM: H1N1|WSN, read-out: Antiviral activity in CPE assay; for EC50: read-out: Cytopathic Effect Assay (A/WSN/33, H1N1) EC50
[4] = system: influenza virus A/WSN/33 (H1N1); test: Plaque inhibition assay in MDCK cells; type: cell-based; details: for inhibition at 100 µM: concentration 100 µM
[5] = molecular target: ribonucleoprotein (RNP) of influenza virus (Influenza A virus, UniProt P15659); test: cell-based; details: HEK-293T, read-out: RNP Reconstitution Assay Inhibition Rate; for inhibition at 100 µM: concentration 100 µM
PA-PB1 endonuclease [6] = test: Experimental PA-PB1 inhibitory activity of literature inhibitors (training and test set); type: biochemical, influenza virus; details: class of the experimental IC50
PA-PB1 endonuclease [7] = system: PA-PB1 endonuclease; design: method as in supplement 1-7; details: training and test set compounds collected from literature; ref supplement 1-7; read-out: IC50 value Experimental (PA-PB1 endonuclease inhibitors); cited from earlier work
[8] = MDCK, read-out: Plaque Inhibition Assay (A/WSN/33, H1N1) Inhibition Rate

Structure (SMILES) | CC50 at 72 h (in vitro [1]) [µM] | MDCK cells survival rate (MDCK cells; 12.5 µmol·L−1) [%] | MDCK cells survival rate (MDCK cells; 25 µmol·L−1) [%] | MDCK cells survival rate (MDCK cells; 50 µmol·L−1) [%] | MDCK cells survival rate (MDCK cells; 100 µmol·L−1) [%] | CC50 at 72 h (in vitro [2]) [µM] | HEK293T cells survival rate (HEK293T cells; 3.125 µmol·L−1) [%] | HEK293T cells survival rate (HEK293T cells; 6.25 µmol·L−1) [%] | HEK293T cells survival rate (HEK293T cells; 12.5 µmol·L−1) [%] | HEK293T cells survival rate (HEK293T cells; 25 µmol·L−1) [%] | HEK293T cells survival rate (HEK293T cells; 50 µmol·L−1) [%] | HEK293T cells survival rate (HEK293T cells; 100 µmol·L−1) [%] | inhibition at 12.5 µM [3] [%] | inhibition at 25 µM [3] [%] | inhibition at 50 µM [3] [%] | inhibition at 100 µM [3] [%] | EC50 [3] [µM] | inhibition at 100 µM [4, 8] [%] | inhibition at 100 µM [5] [%] | melting point [°C] | other results
COc1ccccc1OCCNC(=O)c1ccc(Nc2ccnc3ccc(C(F)(F)F)cc23)cc1 [Compound G26, N-[2-(2-Methoxyphenoxy)ethyl]-4-{[6-(trifluoromethyl)quinolin-4-yl]amino}benzamide] | > 100 | 103.03±1.26 | 105.52±6.56 | 122.08±7.85 | 133.91±11.97 | > 100 | 104.54±2.55 | 83.92±2.40 | 78.70±2.98 | 74.64±5.24 | 72.10±1.56 | 70.01±9.07 | 15.7 ± 1.06 | 16.8 ± 2.11 | 36.8 ± 1.79 | 49.7 ± 6.09 | > 100 | < 10 | 22.6 | 225.3 to 227.3 | 
COc1ccccc1OCCNC(=O)c1ccc(Nc2ccnc3c(C)cccc23)cc1 [Compound G20, N-[2-(2-Methoxyphenoxy)ethyl]-4-[(8-methylquinolin-4-yl)amino]benzamide] | < 10 | 45.97±9.1 | 8.61±0.42 | 8.88±0.51 | 8.66±0.17 | > 100 | 96.66±8.01 | 91.48±3.65 | 94.07±9.07 | 87.46±21.36 | 80.21±1.35 | 60.29±0.35 | 72 ± 6.36 | 28.6 ± 1.61 | 30.9 ± 0.88 | 31.1 ± 0.49 | > 100 |  |  | 150.2 to 151.7 | inhibition at 6 µM ([4]; MDCK, concentration 6 µM, read-out: Plaque Inhibition Assay (A/WSN/33, H1N1) Inhibition Rate): 74.3%; inhibition at 12.5 µM ([5]; concentration 12.5 µM): 6.69%
O=C(NCCO)c1ccc(Nc2ccnc3cc(C(F)(F)F)ccc23)cc1 [Compound G04, N-(2-Hydroxyethyl)-4-{[7-(trifluoromethyl)quinolin-4-yl]amino}benzamide] | > 100 | 118.54±1.29 | 110.54±13.59 | 126.43±7.03 | 124.89±12.49 | > 100 | 112.00±4.22 | 100.01±1.56 | 94.50±4.33 | 91.99±5.43 | 98.62±11.78 | 96.30±10.52 | 55.3 ± 4.28 | 54.6 ± 4.19 | 57.1 ± 9.3 | 49.3 ± 0.74 | > 100 | 59.3 | 14 | 262.5 to 264.1 | 
O=C(NCCCO)c1ccc(Nc2ccnc3cc(C(F)(F)F)ccc23)cc1 [Compound G05, N-(3-Hydroxypropyl)-4-{[7-(trifluoromethyl)quinolin-4-yl]amino}benzamide] | > 100 | 113.26±1.76 | 110.22±4.44 | 101.63±4.85 | 111.87±2.49 | > 100 | 106.06±4.46 | 109.11±25.17 | 96.82±2.21 | 95.07±1.76 | 93.06±1.61 | 122.90±10.09 | 42 ± 5.5 | 48.6 ± 2.31 | 50.2 ± 1.8 | 56 ± 4.37 | 40.9 ± 5.64 | 82.9 | 17.6 | 249.6 to 250.4 | 
CC(C)NC(=O)c1ccc(Nc2ccnc3cc(C(F)(F)F)ccc23)cc1 [Compound G02, N-Isopropyl-4-{[7-(trifluoromethyl)quinolin-4-yl]amino}benzamide] | > 100 | 153.38±36.06 | 137.54±0.71 | 140.08±12.49 | 203.79±6.42 | > 100 | 95.91±3.00 | 87.90±2.52 | 85.31±11.55 | 74.04±2.91 | 75.54±11.17 | 66.13±2.32 | 53.6 ± 3.38 | 61.6 ± 2.13 | 76.7 ± 2.26 | 80.6 ± 9.03 | 10.1 ± 1.66 | < 10 | 3.1 | 243.7 to 245.9 | 
O=C(Nc1sc2c(c1C(=O)Nc1nccs1)CCCCC2)c1ccccc1O [Compound H33] |  |  |  |  |  |  |  |  |  |  |  |  |  |  |  |  |  |  |  |  | Activity scale Experimental (PA-PB1 endonuclease [6]): +++ (+++, IC50 10 to 100 μM (active)); IC50 (PA-PB1 endonuclease [7]): 69 µM
Cc1cc(-c2ccccc2)n2nc(C(=O)Nc3sc4c(c3C(=O)Nc3ccccn3)CCCCC4)nc2n1 [Compound H06] |  |  |  |  |  |  |  |  |  |  |  |  |  |  |  |  |  |  |  |  | Activity scale Experimental (PA-PB1 endonuclease [6]): +++ (+++, IC50 10 to 100 μM (active)); IC50 (PA-PB1 endonuclease [7]): 23 µM
CC1=CC(c2ccccc2)n2nc(NC(=O)c3cccc(F)c3)nc2N1 (stereo not shown) [Compound H26] |  |  |  |  |  |  |  |  |  |  |  |  |  |  |  |  |  |  |  |  | Activity scale Experimental (PA-PB1 endonuclease [6]): + (+, IC50 >150 μM (inactive)); IC50 (PA-PB1 endonuclease [7]): 156 µM
Cc1cc(-c2ccccc2)n2nc(C(=O)Nc3ccccc3C(N)=O)nc2n1 [Compound H05] |  |  |  |  |  |  |  |  |  |  |  |  |  |  |  |  |  |  |  |  | Activity scale Experimental (PA-PB1 endonuclease [6]): +++ (+++, IC50 10 to 100 μM (active)); IC50 (PA-PB1 endonuclease [7]): 11 µM
Cc1onc(-c2ccccc2)c1C(=O)N1CCN(c2ccc([N+](=O)[O-])cc2Cl)CC1 [nucleozin, reference compound] |  |  |  |  |  |  |  |  |  |  |  |  |  |  |  |  | 0.21 ± 0.15 | 99.5 | 92.9 |  | IC50 ([4]; MDCK cells): 0.15 ± 0.11 µM
